experiment: Antagonist activity at GluR1 expressed in Xenopus laevis oocytes assessed as inhibition of glutamate-induced current at -60mV holding potential by two-electrode voltage-clamp electrophysiology

Point of comparison: `NCCCNCCCCNCCCNC(=O)[C@H](CC1CCCCC1)NC(=O)CC12CC3CC(CC(C3)C1)C2` [(S)-2-(2-Adamantan-1-yl-acetylamino)-N-{3-[4-(3-amino-propylamino)-butylamino]-propyl}-3-cyclohexyl-propionamide], IC50 105 nM. Against it:
- NCCCNCCCCNCCCNC(=O)[C@H](CC1CCCCC1)NC(=O)c1ccc(-c2ccccc2)cc1 [(S)-N-(1-(3-(4-(3-aminopropylamino)butylamino)propylamino)-3-cyclohexyl-1-oxopropan-2-yl)biphenyl-4-carboxamide] — within 1.5-fold, 87 nM
- CCCC(=O)N[C@@H](CC1CCCCC1)C(=O)NCCCNCCCCNCCCN [(S)-N-(1-(3-(4-(3-aminopropylamino)butylamino)propylamino)-3-cyclohexyl-1-oxopropan-2-yl)butyramide] — 3.3-fold lower, 32 nM
- NCCCNCCCCNCCCNC(=O)[C@H](CC1CCCCC1)NC(=O)C1CCCCC1 [(S)-N-(1-(3-(4-(3-aminopropylamino)butylamino)propylamino)-3-cyclohexyl-1-oxopropan-2-yl)cyclohexanecarboxamide] — 5-fold lower, 21 nM
- NCCCNCCCCNCCCNC(=O)[C@H](CC1CCCCC1)NC(=O)Cc1cccc2ccccc12 [(S)-N-(3-(4-(3-aminopropylamino)butylamino)propyl)-3-cyclohexyl-2-(2-(naphthalen-1-yl)acetamido)propanamide] — 2.6-fold lower, 41 nM
